{
  "source": "patent US20240197890A1",
  "about": "“FLAVONE DERIVATIVES AND USES IN TARGETING CK2-MEDIATED DISEASES AND CONDITIONS” (Salk Institute for Biological Studies, priority 2020, published 2024)",
  "key": {"[1]": {"tested_on": "IL-6, IL-8, TNF-α and MCP-1 in primary human cerebellar astrocytes (HCA)", "experiment": "Flow-cytometry assay of intracellular cytokine production in IL1-β-treated astrocytes", "assay_type": "cell-based", "protocol": "Flow cytometry. For each well of HCA in a 6-well plate, 2 mL of fresh media with GolgiPLUG (BD #555029, 1:1000) and GolgiSTOP (BD #554724, 1:1000) with 20 μM compound or vehicle (DMSO) and IL1-β 10 ng/mL or DPBS was added. The cells were incubated for 5 h at 37° C. Cells were collected with TrypLE and plated into a 96-well V-bottom plate for staining. The plate was centrifuged for 5 min, 1300 rpm, 4° C. to pellet cells, which were subsequently resuspended in 100 μl DPBS with 1 μl Zombie Violet (Biolegend #423113) and 5 μl Human Trustain FC block (Biolegend #422302) per well for 15 min at room temperature in the dark. The plate was centrifuged, supernatant was aspirated, and the cells were washed with 100 μl/well DPBS. Cells were fixed with 100 μl/well of Cytofix/Cytoperm (BD) for 20 min at 4° C. The plate was centrifuged, supernatant was aspirated, and cells were resuspended in 100 μl Permwash (BD) and incubated for 15 min at 4° C. The plate was centrifuged, supernatant was aspirated, and cells were incubated with 100 μl/well of Ab mix or isotype mix in Permwash (see below) for 20 min at 4° C., followed by centrifugation and 2× PermWash washes. The cells were resuspended in 100 ul DPBS and transferred to FACS tubes containing 200 ul of PBS (total volume per tube 300 μl) for analysis on FACS Analyzers (LSRII or Fortessa).\nPrimary human cerebellar astrocytes (HCA) were co-treated with 20 μM of each compound or vehicle (DMSO), 10 ng/mL IL1-β, and a protein transport inhibitor for 6 hours, and then processed for intracellular staining of pro-inflammatory cytokines IL-6, IL-8, TNF-α, and MCP-1. […]; in vitro IC50 values are for CK2 as reported in the literature)."}, "IκB S32": {"tested_on": "IκB S32", "experiment": "Immunoblot of IκB S32 in IL1-β-stimulated astrocytes", "assay_type": "cell-based, human", "details": "after 5 hours", "protocol": "Western blotting. […] Cells were dissociated with 1:1 Accutase:papain for 3 min at rt, pelleted for 5 min at 800 g, and washed twice with cold DPBS. Pellets were lysed with RIPA buffer (Sigma R0278) supplemented with Halt protease inhibitor cocktail (Thermo Fisher 78445) and clarified by centrifugation (16,000 g, 10 min, 4° C.). Protein concentration was determined by BCA assay (Thermo Fisher). Proteins were denatured in 1×LDS Buffer and 2.5% beta-mercaptoethanol (X) for 10 min at 70° C., separated on Bolt 4-12% Bis-Tris Plus polyacrylamide gels (Thermo Fisher), transferred to PVDF membranes using the iBlot 2 Dry Blotting System, and blocked with 0.1% casein-PBS (Bio-Rad) for 1 h at room temperature. The blots were incubated with primary antibodies overnight at 4° C. in PBS containing 0.1% casein and 0.2% Tween-20. Antibodies used: rabbit anti-CK2a1 (Bethyl #, 1:5000), rabbit anti-CK2a2 (Bethyl #, 1:5000), mouse anti-GAPDH (Fitzgerald #10-1501, 1:20,000), mouse anti-NF-KB (CST #6956S, 1:1000), pNF-KB S529 (TFS #14-9864-82, 1:100), LC3B (CST 2775, 1:1000), ACO2 (CST 6922, 1:1000), rabbit HMGB1 (Novus #NB1002322, 1:1000), mouse anti-IκBα (CST #4814S, 1:1000), mouse anti-IκBa pS32 (SC #8404, 1:500), HA-tag (Bethyl #A190-108A, 1:20000). […] The blots were imaged using the Odyssey CLx imaging system and blots were analyzed on the ImageStudio software (LI-COR). […]"}, "CK2 Y255": {"tested_on": "CK2 Y255", "experiment": "Immunofluorescence of CK2 Y255 phosphorylation in nuclei of primary human astrocytes", "assay_type": "cell-based", "details": "20 μM, 5 h", "protocol": "Immunotluorescence. […] After treatment, cells were fixed with 4% paraformaldehyde solution for 20 min at room temperature and washed 3× with DPBS for 10 min each. The cells were permeabilized using 5% horse serum and 10% Triton X in DPBS for 15 min at room temperature and blocked with 5% horse serum in PBS for 30 min at room temperature. Cells were incubated with primary antibodies in blocking buffer either overnight at 4° C. or for 2 hours at room temperature. After incubation, cells were washed 3× with PBS, blocked using 5% horse serum in PBS for 30 min at room temperature, and incubated with Cy3 red-labeled or AF488 green-labeled secondary antibodies diluted in blocking buffer for 1 hour at room temperature. The cells were washed once with PBS for 10 min, then counter-stained with DAPI. The cells were washed 3× with PBS and mounted with glass coverslips and Immu-Mount solution. Images were obtained with the Zeiss fluorescent microscope. […]"}, "CK2α1": {"tested_on": "CK2α1", "experiment": "CK2 levels in IL1-β-stimulated human primary astrocytes (Western blot)", "assay_type": "cell-based", "details": "after 5 hours", "protocol": "Western blotting. […] Cells were dissociated with 1:1 Accutase:papain for 3 min at rt, pelleted for 5 min at 800 g, and washed twice with cold DPBS. Pellets were lysed with RIPA buffer (Sigma R0278) supplemented with Halt protease inhibitor cocktail (Thermo Fisher 78445) and clarified by centrifugation (16,000 g, 10 min, 4° C.). Protein concentration was determined by BCA assay (Thermo Fisher). Proteins were denatured in 1×LDS Buffer and 2.5% beta-mercaptoethanol (X) for 10 min at 70° C., separated on Bolt 4-12% Bis-Tris Plus polyacrylamide gels (Thermo Fisher), transferred to PVDF membranes using the iBlot 2 Dry Blotting System, and blocked with 0.1% casein-PBS (Bio-Rad) for 1 h at room temperature. The blots were incubated with primary antibodies overnight at 4° C. in PBS containing 0.1% casein and 0.2% Tween-20. Antibodies used: rabbit anti-CK2a1 (Bethyl #, 1:5000), rabbit anti-CK2a2 (Bethyl #, 1:5000), mouse anti-GAPDH (Fitzgerald #10-1501, 1:20,000), mouse anti-NF-KB (CST #6956S, 1:1000), pNF-KB S529 (TFS #14-9864-82, 1:100), LC3B (CST 2775, 1:1000), ACO2 (CST 6922, 1:1000), rabbit HMGB1 (Novus #NB1002322, 1:1000), mouse anti-IκBα (CST #4814S, 1:1000), mouse anti-IκBa pS32 (SC #8404, 1:500), HA-tag (Bethyl #A190-108A, 1:20000). […] The blots were imaged using the Odyssey CLx imaging system and blots were analyzed on the ImageStudio software (LI-COR)."}},
  "data": [
    {"smiles": "COc1cc(-c2cc(=O)c3c(O)cc(O)cc3o2)ccc1O", "note": "[CHR, chrysoeriol]", "values": [
      {"measurement": "suppression of IL1-β-induced IL-6, IL-8, TNF-α and MCP-1 cytokine upregulation", "setting": "[1]; 20 μM, human astrocytes", "result": "strong suppressive activity"},
      {"measurement": "summary of SAR data, activity class", "setting": "[1]; at 20 μM, FIG. 5A", "result": "active"},
      {"measurement": "IκB S32 levels", "setting": "IκB S32", "result": "decreased"},
      {"measurement": "pCK2/CK2 in nuclei", "setting": "CK2 Y255", "result": "reduced"},
      {"measurement": "CK2α1 levels", "setting": "CK2α1", "result": "reduced to baseline"}
    ]}
  ]
}
